From patent US9527867B2, “Antibacterial biaromatic derivatives” (Actelion Pharmaceuticals Ltd., priority 2013, dated 2016)
Converted amounts (≈) assume the structure as drawn.

Legend:
Experiment in all cases: Bacterial growth minimal inhibitory concentration (broth microdilution, CLSI M7-A7)
Assay type in all cases: cell-based
[1] = test system: Acinetobacter baumannii T6474; settings: Acinetobacter baumannii, T6474, cation-adjusted Mueller-Hinton Broth, multiply-resistant strain (in particular quinolone-resistant)
Summary of the method: (§1)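 Read-out is the minimal inhibitory concentration in mg/L, obtained by microdilution in cation-adjusted Mueller-Hinton broth following CLSI M7-A7. Quinolone resistance is present in A798 and T6474, which are multiply resistant, but absent in A894 and in methicillin-sensitive ATCC29213.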

[2] = test system: Enterococcus faecium A949; settings: Enterococcus faecium, A949, cation-adjusted Mueller-Hinton Broth, multiply-resistant strain (in particular quinolone-resistant), read-out: MIC for E. faecium A949
Summary of the method: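 Broth microdilution after CLSI M7-A7 in cation-adjusted Mueller-Hinton medium gave MIC values in mg/L.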

[3] = test system: Moraxella catarrhalis A894; settings: Moraxella catarrhalis, A894, cation-adjusted Mueller-Hinton Broth, quinolone-sensitive strain
Summary of the method: as §1

[4] = test system: Staphylococcus aureus A798; settings: Staphylococcus aureus, A798, cation-adjusted Mueller-Hinton Broth, multiply-resistant strain (in particular quinolone-resistant), read-out: MIC for S. aureus A798
Summary of the method: as §1

[5] = test system: Staphylococcus aureus ATCC29213; settings: Staphylococcus aureus, ATCC29213, cation-adjusted Mueller-Hinton Broth, methicillin-sensitive and quinolone-sensitive strain, read-out: MIC for S. aureus ATCC29213
Summary of the method: as §1

Structure (SMILES): N#Cc1ccc(-c2cccc(CNCC[C@H]3CN(c4ccc5c(n4)NC(=O)CO5)C(=O)O3)c2)cc1 [Example 66, 3′-({2-[(S)-2-oxo-3-(3-oxo-3,4-dihydro-2H-pyrido[3,2-b][1,4]oxazin-6-yl)-oxazolidin-5-yl]-ethylamino}-methyl)-biphenyl-4-carbonitrile]
- MIC [1]: 2 µg/mL (≈ 4.26 µM)
- MIC [2]: 16 µg/mL (≈ 34.1 µM)
- MIC [3]: ≤ 0.063 µg/mL
- MIC [4]: 2 µg/mL (≈ 4.26 µM)
- MIC [5]: 1 µg/mL (≈ 2.13 µM)

Structure (SMILES): COc1cccc(-c2cccc(CNCC[C@@H]3CN(c4ccc5c(c4)NC(=O)CS5)C(=O)O3)c2F)c1 [Example 12, 6-((R)-5-{2-[(2-fluoro-3′-methoxy-biphenyl-3-ylmethyl)-amino]-ethyl}-2-oxo-oxazolidin-3-yl)-4H-benzo[1,4]thiazin-3-one]
- MIC [1]: 2 µg/mL (≈ 3.94 µM)
- MIC [2]: 2 µg/mL (≈ 3.94 µM)
- MIC [3]: 0.063 µg/mL (≈ 0.124 µM)
- MIC [4]: 0.5 µg/mL (≈ 0.985 µM)
- MIC [5]: 0.5 µg/mL (≈ 0.985 µM)

Structure (SMILES): COc1cccc(-c2cccc(CNCC[C@H]3CN(c4ccc5c(n4)NC(=O)CO5)C(=O)O3)c2)c1C#N [Example 86, 3-methoxy-3′-({2-[(S)-2-oxo-3-(3-oxo-3,4-dihydro-2H-pyrido[3,2-b][1,4]oxazin-6-yl)-oxazolidin-5-yl]-ethylamino}-methyl)-biphenyl-2-carbonitrile]
- MIC [1]: 8 µg/mL (≈ 16 µM)
- MIC [2]: 4 µg/mL (≈ 8.01 µM)
- MIC [3]: ≤ 0.016 µg/mL
- MIC [4]: 0.5 µg/mL (≈ 1 µM)
- MIC [5]: 0.125 µg/mL (≈ 0.25 µM)

Structure (SMILES): N#Cc1cccc(-c2cccc(CNCC[C@H]3CN(c4ccc5c(c4)NC(=O)CO5)C(=O)O3)c2)c1 [Example 82, 3′-({2-[(S)-2-oxo-3-(3-oxo-3,4-dihydro-2H-benzo[1,4]oxazin-6-yl)-oxazolidin-5-yl]-ethylamino}-methyl)-biphenyl-3-carbonitrile]
- MIC [1]: 0.5 µg/mL (≈ 1.07 µM)
- MIC [2]: 4 µg/mL (≈ 8.54 µM)
- MIC [3]: ≤ 0.016 µg/mL
- MIC [4]: 0.5 µg/mL (≈ 1.07 µM)
- MIC [5]: 0.5 µg/mL (≈ 1.07 µM)

Structure (SMILES): N#Cc1cccc(-c2cc(CNCCc3cn(-c4ccc5c(n4)NC(=O)CO5)c(=O)o3)ccn2)c1 [Example 49, 3-[4-({2-[2-oxo-3-(3-oxo-3,4-dihydro-2H-pyrido[3,2-b][1,4]oxazin-6-yl)-2,3-dihydro-oxazol-5-yl]-ethylamino}-methyl)-pyridin-2-yl]-benzonitrile]
- MIC [1]: 0.5 µg/mL (≈ 1.07 µM)
- MIC [2]: 8 µg/mL (≈ 17.1 µM)
- MIC [3]: 0.031 µg/mL (≈ 0.0662 µM)
- MIC [4]: 2 µg/mL (≈ 4.27 µM)
- MIC [5]: 1 µg/mL (≈ 2.13 µM)

Structure (SMILES): COc1cnnc(-c2cccc(CNCC[C@H]3CN(c4ccc5c(c4)NC(=O)CO5)C(=O)O3)c2)c1 [Example 81, 6-((S)-5-{2-[3-(5-methoxy-pyridazin-3-yl)-benzylamino]-ethyl}-2-oxo-oxazolidin-3-yl)-4H-benzo[1,4]oxazin-3-one]
- MIC [1]: 1 µg/mL (≈ 2.1 µM)
- MIC [2]: > 8 µg/mL
- MIC [3]: 0.063 µg/mL (≈ 0.132 µM)
- MIC [4]: 1 µg/mL (≈ 2.1 µM)
- MIC [5]: 0.5 µg/mL (≈ 1.05 µM)

Structure (SMILES): COc1cc(-c2cccc(CNCC[C@H]3CN(c4ccc5c(n4)NC(=O)CO5)C(=O)O3)c2)cnn1 [Example 59, 6-((S)-5-{2-[3-(6-methoxy-pyridazin-4-yl)-benzylamino]-ethyl}-2-oxo-oxazolidin-3-yl)-4H-pyrido[3,2-b][1,4]oxazin-3-one]
- MIC [1]: 2 µg/mL (≈ 4.2 µM)
- MIC [2]: > 8 µg/mL
- MIC [3]: 0.125 µg/mL (≈ 0.262 µM)
- MIC [4]: 4 µg/mL (≈ 8.39 µM)
- MIC [5]: 2 µg/mL (≈ 4.2 µM)

Structure (SMILES): N#Cc1cccnc1-c1cccc(CNCC[C@H]2CN(c3ccc4c(n3)NC(=O)CO4)C(=O)O2)c1 [Example 62, 2-[3-({2-[(S)-2-oxo-3-(3-oxo-3,4-dihydro-2H-pyrido[3,2-b][1,4]oxazin-6-yl)-oxazolidin-5-yl]-ethylamino}-methyl)-phenyl]-nicotinonitrile]
- MIC [1]: 1 µg/mL (≈ 2.13 µM)
- MIC [2]: 16 µg/mL (≈ 34 µM)
- MIC [3]: ≤ 0.063 µg/mL
- MIC [4]: 2 µg/mL (≈ 4.25 µM)
- MIC [5]: 1 µg/mL (≈ 2.13 µM)

Structure (SMILES): COc1ccnc(-c2cccc(CNCC[C@@H]3CN(c4ccc5c(c4)NC(=O)CS5)C(=O)O3)c2)n1 [Example 23, 6-((R)-5-{2-[3-(4-methoxy-pyrimidin-2-yl)-benzylamino]-ethyl}-2-oxo-oxazolidin-3-yl)-4H-benzo[1,4]thiazin-3-one]
- MIC [1]: 0.25 µg/mL (≈ 0.509 µM)
- MIC [2]: 1 µg/mL (≈ 2.03 µM)
- MIC [3]: ≤ 0.016 µg/mL
- MIC [4]: 0.063 µg/mL (≈ 0.128 µM)
- MIC [5]: 0.063 µg/mL (≈ 0.128 µM)

Structure (SMILES): COc1cccc(-c2cccc(CNCC[C@@H]3CN(c4ccc5c(c4)NC(=O)CS5)C(=O)O3)n2)c1 [Example 20, 6-[(R)-5-(2-{[6-(3-methoxy-phenyl)-pyridin-2-ylmethyl]-amino}-ethyl)-2-oxo-oxazolidin-3-yl]-4H-benzo[1,4]thiazin-3-one]
- MIC [1]: 0.5 µg/mL (≈ 1.02 µM)
- MIC [2]: 1 µg/mL (≈ 2.04 µM)
- MIC [3]: 0.063 µg/mL (≈ 0.128 µM)
- MIC [4]: 0.25 µg/mL (≈ 0.51 µM)
- MIC [5]: 0.125 µg/mL (≈ 0.255 µM)

Structure (SMILES): N#Cc1cccc(-c2cccc(CNCCc3cn(-c4ccc5c(n4)NC(=O)CO5)c(=O)o3)c2)c1 [Example 36, 3′-({2-[2-oxo-3-(3-oxo-3,4-dihydro-2H-pyrido[3,2-b][1,4]oxazin-6-yl)-2,3-dihydro-oxazol-5-yl]-ethylamino}-methyl)-biphenyl-3-carbonitrile]
- MIC [1]: 0.063 µg/mL (≈ 0.135 µM)
- MIC [2]: 0.5 µg/mL (≈ 1.07 µM)
- MIC [3]: ≤ 0.016 µg/mL
- MIC [4]: 0.063 µg/mL (≈ 0.135 µM)
- MIC [5]: 0.063 µg/mL (≈ 0.135 µM)

Structure (SMILES): COc1ccc(-c2cccc(CNCC[C@H]3CN(c4ccc5c(n4)NC(=O)CO5)C(=O)O3)c2)nn1 [Example 79, 6-((S)-5-{2-[3-(6-methoxy-pyridazin-3-yl)-benzylamino]-ethyl}-2-oxo-oxazolidin-3-yl)-4H-pyrido[3,2-b][1,4]oxazin-3-one]
- MIC [1]: 0.5 µg/mL (≈ 1.05 µM)
- MIC [2]: 8 µg/mL (≈ 16.8 µM)
- MIC [3]: 0.063 µg/mL (≈ 0.132 µM)
- MIC [4]: 0.5 µg/mL (≈ 1.05 µM)
- MIC [5]: 0.5 µg/mL (≈ 1.05 µM)

Structure (SMILES): N#Cc1ccc(O)c(-c2cc(CNCC[C@@H]3CN(c4ccc5c(c4)NC(=O)CS5)C(=O)O3)ccn2)c1 [Example 38, 4-hydroxy-3-[4-({2-[(R)-2-oxo-3-(3-oxo-3,4-dihydro-2H-benzo[1,4]thiazin-6-yl)-oxazolidin-5-yl]-ethylamino}-methyl)-pyridin-2-yl]-benzonitrile]
- MIC [1]: 0.063 µg/mL (≈ 0.126 µM)
- MIC [2]: 0.125 µg/mL (≈ 0.249 µM)
- MIC [3]: ≤ 0.016 µg/mL
- MIC [4]: ≤ 0.016 µg/mL
- MIC [5]: ≤ 0.016 µg/mL

Structure (SMILES): COc1cccc(-c2cc(CNCC[C@@H]3CN(c4ccc5c(c4)NC(=O)CS5)C(=O)O3)ccc2F)c1 [Example 11, 6-((R)-5-{2-[(6-fluoro-3′-methoxy-biphenyl-3-ylmethyl)-amino]-ethyl}-2-oxo-oxazolidin-3-yl)-4H-benzo[1,4]thiazin-3-one]
- MIC [1]: 2 µg/mL (≈ 3.94 µM)
- MIC [2]: 8 µg/mL (≈ 15.8 µM)
- MIC [3]: 0.125 µg/mL (≈ 0.246 µM)
- MIC [4]: 1 µg/mL (≈ 1.97 µM)
- MIC [5]: 1 µg/mL (≈ 1.97 µM)

Structure (SMILES): COc1cccc(-c2cccc(CNCCc3nn(-c4ccc5c(n4)NC(=O)CO5)c(=O)o3)c2)c1 [Example 107, 6-(5-{2-[(3′-methoxy-biphenyl-3-ylmethyl)-amino]-ethyl}-2-oxo-[1,3,4]oxadiazol-3-yl)-4H-pyrido[3,2-b][1,4]oxazin-3-one]
- MIC [1]: 2 µg/mL (≈ 4.22 µM)
- MIC [2]: 8 µg/mL (≈ 16.9 µM)
- MIC [3]: 0.063 µg/mL (≈ 0.133 µM)
- MIC [4]: 8 µg/mL (≈ 16.9 µM)
- MIC [5]: 4 µg/mL (≈ 8.45 µM)

Structure (SMILES): CCOC(=O)COc1cccc(-c2cccc(CNCC[C@H]3CN(c4ccc5c(n4)NC(=O)CO5)C(=O)O3)c2)c1 [Example 68, [3′-({2-[(S)-2-oxo-3-(3-oxo-3,4-dihydro-2H-pyrido[3,2-b][1,4]oxazin-6-yl)-oxazolidin-5-yl]-ethylamino}-methyl)-biphenyl-3-yloxy]-acetic acid ethyl ester]
- MIC [1]: 8 µg/mL (≈ 14.6 µM)
- MIC [2]: > 8 µg/mL
- MIC [3]: 0.125 µg/mL (≈ 0.229 µM)
- MIC [4]: 1 µg/mL (≈ 1.83 µM)
- MIC [5]: 1 µg/mL (≈ 1.83 µM)

Structure (SMILES): COc1cccc(-c2cnnc(CNCC[C@H]3CN(c4ccc5c(n4)NC(=O)CO5)C(=O)O3)c2)c1 [Example 103, 6-[(S)-5-(2-{[5-(3-methoxy-phenyl)-pyridazin-3-ylmethyl]-amino}-ethyl)-2-oxo-oxazolidin-3-yl]-4H-pyrido[3,2-b][1,4]oxazin-3-one]
- MIC [1]: 0.5 µg/mL (≈ 1.05 µM)
- MIC [2]: 2 µg/mL (≈ 4.2 µM)
- MIC [3]: 0.063 µg/mL (≈ 0.132 µM)
- MIC [4]: 1 µg/mL (≈ 2.1 µM)
- MIC [5]: 0.25 µg/mL (≈ 0.525 µM)
